Test results taken from patent publication US20130039929A1, “METHOD TREATING BREAST CANCER” (priority 2010, published 2013).

Test system: HIF-1 dependent transcription
Test: 5×HRE luciferase reporter assay of hypoxia (CoCl2)-induced transcription in MDAMB-231 cells
Type: cell-based
Details: CoCl2 along with thalidomide 10 μM
From the text: FIGS. 5A-5E. FIG. 5A. Schematic map of luciferase reporter used; HRE: hypoxia responsive element. FIG. 5B. Assay of hypoxia-induced luciferase activity in the presence of each indicated siRNA transfection. **p<0.001, * p<0.01 versus control/CoCl2 one-way ANOVA, Bonferroni post test. FIG. 5C. Western blot showing the efficiency of knockdown for each βarr isoform. FIG. 5D. Assay of hypoxia induced luciferase reporter activity in Mouse Embryonic Fibroblasts (MEFs) that are null for both βarr1 and 2 under control and βarr1 replete conditions. *** p<0.001, between the two cobalt treated samples, Bonferroni post test, one-way ANOVA, n=3. FIG. 5E. Western blot of lysates showing expression of transfected βarr1.
FIGS. 7A-7D. FIG. 7A. […] FIG. 7B. […] FIG. 7C. […] FIG. 7D.
To test if the above β-arrestin1-HIF-1α interaction has functional consequences, an analysis was made of the effect of β-arrestin1 expression on HIF-1-mediated transcription during hypoxia. One of the most characterized HIF-regulated genes is the potent endothelial mitogen, VEGF-A, which regulates endothelial cell proliferation and blood vessel formation in both normal and cancerous tissues (Liu et al, Circ. Res. 77:638-643 (1995)). The VEGF-A gene contains a HRE in its 5′ UTR (untranslated region) and hypoxia induces a rapid and sustained increase in VEGF-A mRNA levels. […]

O=C1CCC(N2C(=O)c3ccccc3C2=O)C(=O)N1 (stereo not shown) [thalidomide]
HIF-1 dependent transcriptional response (5×HRE luciferase reporter activity): complete inhibition
